US20250353891A1 (MEDIMMUNE LIMITED, priority 2022, published 2025)
Like-named read-outs stand apart in the source and are kept apart here. Starred links: 1 amine or outer side, 2 acyl side, 3 side chain; linkers in the order of their positions; H or OH if unused. Non-standard residues stand in square brackets, D forms with d. Residues, ends and D or L forms follow the SMILES beside them. Groups on a side chain read outwards from the residue. *: point of attachment. C18 diacid = O=C(O)CCCCCCCCCCCCCCCCC(=O)*; γGlu = O=C(O)[C@H](CCC(=O)[*:2])N[*:1]; αMeF = C[C@](N)(Cc1ccccc1)C(=O)O; AEEA = NCCOCCOCC(=O)O; Aib = CC(C)(N)C(=O)O

Tests used:
[1] = target: human glucagon receptor (hGCGR) (Homo sapiens, UniProt P47871); assay: cAMP production (HTRF) in CHO cells expressing hGCGR; type: cell-based; parameters: expressed in transfected cells; settings: cAMP in CHO hGCGR cells, geometric mean, read-out: hGluc-R EC50
Sequence of human glucagon receptor (hGCGR) (P47871 26-477): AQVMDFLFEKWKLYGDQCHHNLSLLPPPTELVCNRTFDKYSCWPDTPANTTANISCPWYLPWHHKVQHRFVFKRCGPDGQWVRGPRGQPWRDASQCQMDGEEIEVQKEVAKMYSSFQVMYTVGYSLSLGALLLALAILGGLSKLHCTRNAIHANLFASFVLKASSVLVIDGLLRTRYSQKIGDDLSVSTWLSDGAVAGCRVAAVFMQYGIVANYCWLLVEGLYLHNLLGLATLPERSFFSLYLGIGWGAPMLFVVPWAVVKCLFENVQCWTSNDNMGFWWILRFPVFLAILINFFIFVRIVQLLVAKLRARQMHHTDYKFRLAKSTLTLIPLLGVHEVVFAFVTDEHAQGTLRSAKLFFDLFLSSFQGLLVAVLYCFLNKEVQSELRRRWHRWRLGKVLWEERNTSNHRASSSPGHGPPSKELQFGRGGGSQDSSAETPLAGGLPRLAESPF
Procedure, shortened: (§1)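 Cells were resuspended in assay buffer at batch-optimized density, typically 1×10^5 cells/mL for hGLP-1R and 2×10^5 cells/mL for hGCGR. After 30 min incubation at room temperature with compound, cAMP was measured by two-step HTRF. EC50 values came from 4-parameter logistic fits of % Delta F.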

[2] = target: human GLP-1 receptor (hGLP-1R) (Homo sapiens, UniProt P43220); assay: cAMP production (HTRF) in CHO cells expressing hGLP-1R; type: cell-based; parameters: expressed in transfected cells; settings: for EC50: cAMP in CHO hGLP-1R cells, geometric mean, read-out: hGLP-1R EC50; for % Relative Potency Ratio: % GLP-1R activity relative to GLP-1 / % GlucR activity relative to glucagon
Sequence of human GLP-1 receptor (hGLP-1R) (P43220 24-463): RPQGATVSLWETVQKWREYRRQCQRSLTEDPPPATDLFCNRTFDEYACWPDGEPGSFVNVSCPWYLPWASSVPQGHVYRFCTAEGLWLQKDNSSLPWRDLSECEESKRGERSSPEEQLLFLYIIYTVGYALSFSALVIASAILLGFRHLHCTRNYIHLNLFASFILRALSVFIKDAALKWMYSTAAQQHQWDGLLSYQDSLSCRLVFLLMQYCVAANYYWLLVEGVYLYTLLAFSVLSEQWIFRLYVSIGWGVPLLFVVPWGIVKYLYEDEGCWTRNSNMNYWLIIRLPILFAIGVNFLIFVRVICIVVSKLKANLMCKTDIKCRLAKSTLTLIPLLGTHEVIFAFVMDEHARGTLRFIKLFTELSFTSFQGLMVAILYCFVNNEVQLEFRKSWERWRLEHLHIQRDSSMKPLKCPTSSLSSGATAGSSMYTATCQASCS
Procedure, shortened: as §1

[3] = Table 6, peptides modified at position 17
[4] = Table 7, peptides modified at position 20

Row | EC50 [1, 3] | EC50 [2, 3] | % Relative Potency Ratio ([2]; Table 6) | EC50 [1, 4] | EC50 [2, 4] | % Relative Potency Ratio ([2]; Table 7) | SMILES
1 | 0.738 nM | 0.146 nM | 10.0 |  |  |  | CC[C@H](C)[C@H](NC(=O)[C@H](Cc1ccccc1)NC(=O)[C@H](CCC(=O)O)NC(=O)[C@H](CCCNC(=N)N)NC(=O)[C@H](C)NC(=O)[C@H](C)NC(=O)[C@H](CCCCNC(=O)COCCOCCNC(=O)COCCOCCNC(=O)CC[C@H](NC(=O)CC[C@H](NC(=O)CCCCCCCCCCCCCCCCC(=O)O)C(=O)O)C(=O)O)NC(=O)[C@H](C)NC(=O)[C@H](CCC(=O)O)NC(=O)[C@H](CC(C)C)NC(=O)[C@](C)(Cc1ccccc1)NC(=O)[C@H](CCCCN)NC(=O)[C@H](CO)NC(=O)[C@@H](NC(=O)[C@H](CC(=O)O)NC(=O)[C@H](CO)NC(=O)[C@@H](NC(=O)[C@H](Cc1ccccc1)NC(=O)[C@@H](NC(=O)CNC(=O)[C@H](CCC(N)=O)NC(=O)C(C)(C)NC(=O)[C@@H](N)Cc1c[nH]cn1)[C@@H](C)O)[C@@H](C)O)C(C)C)C(=O)N[C@@H](C)C(=O)N[C@@H](Cc1c[nH]c2ccccc12)C(=O)N[C@@H](CC(C)C)C(=O)N[C@@H](CC(C)C)C(=O)N[C@@H](CCC(=O)O)C(=O)N[C@H](C(N)=O)[C@@H](C)O [Peptide 517] (H-H[Aib]QGTFTSDVSK[αMeF]LEAK([AEEA-AEEA-γGlu-γGlu-C18 diacid])AAREFIAWLLET-NH2)
2 | 0.0773 nM | 0.031 nM | 4.9 |  |  |  | CC(C)C[C@H](NC(=O)[C@H](Cc1c[nH]c2ccccc12)NC(=O)[C@H](CCC(N)=O)NC(=O)[C@@H](NC(=O)[C@H](Cc1ccccc1)NC(=O)[C@H](CC(=O)O)NC(=O)[C@H](CCCNC(=N)N)NC(=O)[C@H](C)NC(=O)[C@H](CCCNC(=N)N)NC(=O)[C@H](CCCCNC(=O)COCCOCCNC(=O)COCCOCCNC(=O)CC[C@H](NC(=O)CC[C@H](NC(=O)CCCCCCCCCCCCCCCCC(=O)O)C(=O)O)C(=O)O)NC(=O)[C@@H](NC(=O)[C@H](CC(=O)O)NC(=O)[C@H](CC(C)C)NC(=O)[C@](C)(Cc1ccccc1)NC(=O)[C@H](CCCCN)NC(=O)[C@H](CO)NC(=O)[C@@H](NC(=O)[C@H](CC(=O)O)NC(=O)[C@H](CO)NC(=O)[C@@H](NC(=O)[C@H](Cc1ccccc1)NC(=O)[C@@H](NC(=O)CNC(=O)[C@H](CCC(N)=O)NC(=O)C(C)(C)NC(=O)[C@@H](N)Cc1c[nH]cn1)[C@@H](C)O)[C@@H](C)O)C(C)C)[C@@H](C)O)C(C)C)C(=O)N[C@@H](CC(C)C)C(=O)N[C@@H](CCC(=O)O)C(=O)NC(C)(C)C(=O)NCC(=O)O [Peptide 518]
3 | 0.386 nM | 0.172 nM | 4.4 |  |  |  | CC(C)C[C@H](NC(=O)[C@H](Cc1c[nH]c2ccccc12)NC(=O)[C@H](CCC(N)=O)NC(=O)[C@@H](NC(=O)[C@H](Cc1ccccc1)NC(=O)[C@H](CC(=O)O)NC(=O)[C@H](CCCNC(=N)N)NC(=O)[C@H](C)NC(=O)[C@H](CCCNC(=N)N)NC(=O)[C@H](CCCCNC(=O)CC[C@H](NC(=O)CC[C@H](NC(=O)COCCOCCNC(=O)COCCOCCNC(=O)CC[C@H](NC(=O)CC[C@H](NC(=O)CCCCCCCCCCCCCCCCC(=O)O)C(=O)O)C(=O)O)C(=O)O)C(=O)O)NC(=O)[C@@H](NC(=O)[C@H](CC(=O)O)NC(=O)[C@H](CC(C)C)NC(=O)[C@](C)(Cc1ccccc1)NC(=O)[C@H](CCCCN)NC(=O)[C@H](CO)NC(=O)[C@@H](NC(=O)[C@H](CC(=O)O)NC(=O)[C@H](CO)NC(=O)[C@@H](NC(=O)[C@H](Cc1ccccc1)NC(=O)[C@@H](NC(=O)CNC(=O)[C@H](CCC(N)=O)NC(=O)C(C)(C)NC(=O)[C@@H](N)Cc1c[nH]cn1)[C@@H](C)O)[C@@H](C)O)C(C)C)[C@@H](C)O)C(C)C)C(=O)N[C@@H](CC(C)C)C(=O)N[C@@H](CCC(=O)O)C(=O)NC(C)(C)C(=O)NCC(=O)O [Peptide 519]
4 | 1.62 nM | 0.543 nM | 5.9 |  |  |  | CC(C)C[C@H](NC(=O)[C@H](Cc1c[nH]c2ccccc12)NC(=O)[C@H](CCC(N)=O)NC(=O)[C@@H](NC(=O)[C@H](Cc1ccccc1)NC(=O)[C@H](CC(=O)O)NC(=O)[C@H](CCCNC(=N)N)NC(=O)[C@H](C)NC(=O)[C@H](CCCNC(=N)N)NC(=O)[C@H](CCCCNC(=O)CC[C@H](NC(=O)CC[C@H](NC(=O)COCCOCCNC(=O)COCCOCCNC(=O)CC[C@H](NC(=O)CC[C@H](NC(=O)CCCCCCCCCCCCCCCCCCC(=O)O)C(=O)O)C(=O)O)C(=O)O)C(=O)O)NC(=O)[C@@H](NC(=O)[C@H](CC(=O)O)NC(=O)[C@H](CC(C)C)NC(=O)[C@](C)(Cc1ccccc1)NC(=O)[C@H](CCCCN)NC(=O)[C@H](CO)NC(=O)[C@@H](NC(=O)[C@H](CC(=O)O)NC(=O)[C@H](CO)NC(=O)[C@@H](NC(=O)[C@H](Cc1ccccc1)NC(=O)[C@@H](NC(=O)CNC(=O)[C@H](CCC(N)=O)NC(=O)C(C)(C)NC(=O)[C@@H](N)Cc1c[nH]cn1)[C@@H](C)O)[C@@H](C)O)C(C)C)[C@@H](C)O)C(C)C)C(=O)N[C@@H](CC(C)C)C(=O)N[C@@H](CCC(=O)O)C(=O)NC(C)(C)C(=O)NCC(=O)O [Peptide 520]
5 |  |  |  | 10.1 nM | 0.677 nM | 29.5 | CC(C)C[C@H](NC(=O)[C@H](Cc1c[nH]c2ccccc12)NC(=O)[C@H](CCC(N)=O)NC(=O)[C@@H](NC(=O)[C@H](Cc1ccccc1)NC(=O)[C@H](CC(=O)O)NC(=O)[C@H](CCCCNC(=O)COCCOCCNC(=O)COCCOCCNC(=O)CC[C@H](NC(=O)CCCCCCCCCCCCCCCCC(=O)O)C(=O)O)NC(=O)[C@H](C)NC(=O)[C@H](CCCNC(=N)N)NC(=O)[C@H](CCC(=O)O)NC(=O)[C@H](CO)NC(=O)[C@H](CC(=O)O)NC(=O)[C@H](CC(C)C)NC(=O)[C@](C)(Cc1ccccc1)NC(=O)[C@H](CCCCN)NC(=O)[C@H](CO)NC(=O)[C@@H](NC(=O)[C@H](CC(=O)O)NC(=O)[C@H](CO)NC(=O)[C@@H](NC(=O)[C@H](Cc1ccccc1)NC(=O)[C@@H](NC(=O)CNC(=O)[C@H](CCC(N)=O)NC(=O)C(C)(C)NC(=O)[C@@H](N)Cc1c[nH]cn1)[C@@H](C)O)[C@@H](C)O)C(C)C)C(C)C)C(=O)N[C@@H](CCC(=O)O)C(=O)N[C@@H](C)C(=O)NCC(=O)NCC(=O)O [Peptide 521]
6 |  |  |  | 6.36 nM | 0.508 nM | 24.8 | CC(C)C[C@H](NC(=O)[C@H](Cc1c[nH]c2ccccc12)NC(=O)[C@H](C)NC(=O)[C@@H](NC(=O)[C@H](Cc1ccccc1)NC(=O)[C@H](CC(=O)O)NC(=O)[C@H](CCCCNC(=O)COCCOCCNC(=O)COCCOCCNC(=O)CC[C@H](NC(=O)CCCCCCCCCCCCCCCCC(=O)O)C(=O)O)NC(=O)[C@H](C)NC(=O)[C@H](CCCNC(=N)N)NC(=O)[C@H](CCC(=O)O)NC(=O)[C@H](CO)NC(=O)[C@H](CC(=O)O)NC(=O)[C@H](CC(C)C)NC(=O)[C@](C)(Cc1ccccc1)NC(=O)[C@H](CCCCN)NC(=O)[C@H](CO)NC(=O)[C@@H](NC(=O)[C@H](CC(=O)O)NC(=O)[C@H](CO)NC(=O)[C@@H](NC(=O)[C@H](Cc1ccccc1)NC(=O)[C@@H](NC(=O)CNC(=O)[C@H](CCC(N)=O)NC(=O)C(C)(C)NC(=O)[C@@H](N)Cc1c[nH]cn1)[C@@H](C)O)[C@@H](C)O)C(C)C)C(C)C)C(=O)N[C@@H](CCC(=O)O)C(=O)N[C@@H](C)C(=O)NCC(=O)NCC(=O)O [Peptide 522]
7 |  |  |  | > 24.7 nM | 0.615 nM |  | CC(C)C[C@H](NC(=O)[C@H](Cc1c[nH]c2ccccc12)NC(=O)[C@H](C)NC(=O)[C@@H](NC(=O)[C@H](Cc1ccccc1)NC(=O)[C@H](CC(=O)O)NC(=O)[C@H](CCCCNC(=O)COCCOCCNC(=O)COCCOCCNC(=O)CC[C@H](NC(=O)CCCCCCCCCCCCCCCCCCC(=O)O)C(=O)O)NC(=O)[C@H](C)NC(=O)[C@H](CCCNC(=N)N)NC(=O)[C@H](CCC(=O)O)NC(=O)[C@H](CO)NC(=O)[C@H](CC(=O)O)NC(=O)[C@H](CC(C)C)NC(=O)[C@](C)(Cc1ccccc1)NC(=O)[C@H](CCCCN)NC(=O)[C@H](CO)NC(=O)[C@@H](NC(=O)[C@H](CC(=O)O)NC(=O)[C@H](CO)NC(=O)[C@@H](NC(=O)[C@H](Cc1ccccc1)NC(=O)[C@@H](NC(=O)CNC(=O)[C@H](CCC(N)=O)NC(=O)C(C)(C)NC(=O)[C@@H](N)Cc1c[nH]cn1)[C@@H](C)O)[C@@H](C)O)C(C)C)C(C)C)C(=O)N[C@@H](CCC(=O)O)C(=O)N[C@@H](C)C(=O)NCC(=O)NCC(=O)O [Peptide 523]
8 |  |  |  | > 24.4 nM | 0.366 nM |  | CC(C)C[C@H](NC(=O)[C@H](Cc1c[nH]c2ccccc12)NC(=O)[C@H](CCCNC(=N)N)NC(=O)[C@@H](NC(=O)[C@H](Cc1ccccc1)NC(=O)[C@H](CC(=O)O)NC(=O)[C@H](CCCCNC(=O)COCCOCCNC(=O)COCCOCCNC(=O)CC[C@H](NC(=O)CCCCCCCCCCCCCCCCC(=O)O)C(=O)O)NC(=O)[C@H](C)NC(=O)[C@H](CCCNC(=N)N)NC(=O)[C@H](CCC(=O)O)NC(=O)[C@H](CO)NC(=O)[C@H](CC(=O)O)NC(=O)[C@H](CC(C)C)NC(=O)[C@](C)(Cc1ccccc1)NC(=O)[C@H](CCC(=O)O)NC(=O)[C@H](CO)NC(=O)[C@@H](NC(=O)[C@H](CC(=O)O)NC(=O)[C@H](CO)NC(=O)[C@@H](NC(=O)[C@H](Cc1ccccc1)NC(=O)[C@@H](NC(=O)CNC(=O)[C@H](CCC(N)=O)NC(=O)C(C)(C)NC(=O)[C@@H](N)Cc1c[nH]cn1)[C@@H](C)O)[C@@H](C)O)C(C)C)C(C)C)C(=O)N[C@@H](CCC(=O)O)C(=O)N[C@@H](C)C(=O)NCC(=O)NCC(=O)O [Peptide 524] (H-H[Aib]QGTFTSDVSE[αMeF]LDSERAK([AEEA-AEEA-γGlu-C18 diacid])DFVRWLEAGG-OH)
